Assay type in all cases: cell-based, Murine
In test [1] the test system is ESCs. Briefly: ESC reseeding and proliferation on decellularized ECMs (specific growth rate). As for the experimental part:
(§1) To assess cell proliferation, ESCs of 0.5×10^5 per mL were seeded on the decelluarized ECMs and cultivated for 4 days in expansion media without LIF (FIG. 1). […] Cell numbers were determined at days 0, 2, and 4 using a hemocytometer after trypsin/EDTA dissociation. The specific growth rates were calculated as the slope of the proliferation curve. Cell viability was determined by the incubation with 5 mg/mL 3-(4,5-Dimethylthiazol-2-yl)-2,5-diphenyltetrazolium bromide (MTT, Sigma) solution. Afterwards, the formazan crystals were hydrolyzed with dimethyl sulfoxide (Sigma) and measured at 500 nm using a microplate reader. For the test of RA signaling, soluble RA (1 μM) or BMS 493 (1 μM, Santa Cruz), a pan-RAR antagonist, was supplemented in the media. To assess the differentiation ability after culturing on the decellularized ECMs, ESCs were replated on 0.1% gelatin-coated 12-well plates and cultured for 7 days in differentiation medium without any inducing growth factors. The cells were evaluated for the expression of Nestin (ectoderm), β-tubulin III (ectoderm), α-actinin (mesoderm), and FOXA2 (endoderm).

Test [2] relates to ESCs. Briefly: Oct-4 expression of reseeded ESCs by flow cytometry. Here is the method: as §1
For flow cytometry, 1×10^6 cells per sample were fixed with 4% PFA and washed with staining buffer (2% FBS in PBS). […] The cells were acquired with BD FACSCANTO II flow cytometer (Becton Dickinson) and analyzed against isotype controls using FlowJo software.
(In flow cytometry, cells or beads pass a laser one at a time.)

Test [3] deals with ESCs. Kind of test: Three-germ layer differentiation of ESCs grown on decellularized ECM scaffolds. Here is the method:
(§2) To detect differentiation markers, the cells were incubated with mouse or rabbit primary antibody against: Nestin (Millipore), β-tubulin III (Sigma), α-actinin (sarcomeric, Sigma), or FOXA2 (Millipore). After washing, the cells were incubated with the corresponding secondary antibody: ALEXA FLUOR 488 goat anti-Mouse IgG1 (for Nestin and α-actinin) or IgG2b (for β-Tubulin III), or ALEXA FLUOR 488 goat anti-Rabbit IgG (for FOXA2). The localization of RAR-α was also assessed using goat anti-Rabbit RAR-α antibody (Abcam) detected by ALEXA FLUOR 594 donkey anti-Goat IgG.
as §1
For flow cytometry, 1×10^6 cells per sample were fixed with 4% PFA and washed with staining buffer (2% FBS in PBS). The cells were stained with DNA-intercalating dye ethidium monoazide bromide (EMA, Sigma) and permeabilized with 100% cold methanol. The samples were incubated with primary antibodies against Oct-4 (Millipore), Nestin, β-tubulin III, α-actinin, or FOXA2 followed by the corresponding secondary antibody: ALEXA FLUOR 488 goat anti-Mouse IgG1 (for Oct-4, Nestin, and α-actinin) or IgG2b (for β-tubulin III), or ALEXA FLUOR 488 goat anti-Rabbit IgG (for FOXA2). The cells were acquired with BD FACSCANTO II flow cytometer (Becton Dickinson) and analyzed against isotype controls using FlowJo software.

The test system of test [4] is ESC-derived NPCs. Briefly: NPC proliferation assays on ECM scaffolds (fold expansion, MTT). The following applies: NPCs on DE-EC and DE-NG scaffolds, BMS 493 1 μM, FIG. 17A. Here is the method:
For various ECM scaffolds, 1×10^6 dissociated NPCs or intact NPC aggregates derived from ESCs were reseeded on the ECM scaffolds and cultivated for 3-4 days in DMEM-F12 containing 2% B27. The cells were analyzed for colonization on the scaffolds, proliferation, and viability. To study the effect of retinoid signaling, BMS 493 (1 μM, Santa Cruz), a pan-retinoic acid receptor (RAR) antagonist, was supplemented in the media for some experiments.
Cell proliferation assays: Cell numbers were determined at days 3 using a hemocytometer after trypsin/EDTA dissociation for fold expansion. Cell proliferation kinetics was also determined by incubating with 5 mg/mL 3-(4,5-Dimethylthiazol-2-yl)-2,5-diphenyltetrazolium bromide (MTT, Sigma) solution. Afterwards, the formazan crystals were hydrolyzed with dimethyl sulfoxide (Sigma) and measured at 500 nm using a microplate reader.

Test [5] relates to ESC-derived NPCs. Briefly: Neural marker expression of reseeded NPCs by flow cytometry. The following applies: for GFAP expression upon BMS 493 treatment: FIG. 17D. Here is the method:
For various ECM scaffolds, 1×10^6 dissociated NPCs or intact NPC aggregates derived from ESCs were reseeded on the ECM scaffolds and cultivated for 3-4 days in DMEM-F12 containing 2% B27. The cells were analyzed for colonization on the scaffolds, proliferation, and viability. To study the effect of retinoid signaling, BMS 493 (1 μM, Santa Cruz), a pan-retinoic acid receptor (RAR) antagonist, was supplemented in the media for some experiments. After 3 days of culture in suspension, the NPC-ECM constructs were replated in 24-well plates coated with Geltrex™, the LDEV-Free Reduced Growth Factor Basement Membrane Matrix (Life Technologies), for another 3 days. The differentiation was assessed by immunocytochemistry for neural markers. […] The samples were then blocked and incubated with mouse or rabbit primary antibody against: Nestin (Sigma) or Musashi-1 (Abcam) for neural progenitors, β-tubulin III (Millipore) for neurons, or GFAP (Millipore) for astrocytes. After washing, the cells were incubated with the corresponding secondary antibody: Alexa Fluor® 488 goat anti-Mouse IgG1 for GFAP and β-tubulin III, or Alexa Fluor® 488 goat anti-Rabbit IgG for Nestin and Musashi-1 (Molecular Probes). The samples were mounted with 4′,6-Diamidino-2-Phenylindole (DAPI) and visualized using a fluorescent microscope. To quantify the levels of neural marker expression, the cells on ECM scaffolds were harvested by trypsinization and analyzed by flow cytometry. Briefly, 1×10^6 cells per sample were fixed with 4% PFA and washed with staining buffer (2% FBS in PBS). […] Alexa Fluor® 488 goat anti-Mouse IgG1 (for GFAP and β-tubulin III) or Alexa Fluor® 488 goat anti-Rabbit IgG (for Nestin and Musashi-1). The cells were acquired with BD FACSCanto™ II flow cytometer (Becton Dickinson) and analyzed against isotype controls using FlowJo software.

The target of a further test is T1, RAR-α (Mus musculus, UniProt P11416).
T1 construct: Localization of RAR-α in ESC monolayers with or without RA treatment; endogenous in cells; host or cells: embryonic stem cells (monolayers, or reseeded on DE-RA10 scaffolds)
T1 sequence (P11416 1-462): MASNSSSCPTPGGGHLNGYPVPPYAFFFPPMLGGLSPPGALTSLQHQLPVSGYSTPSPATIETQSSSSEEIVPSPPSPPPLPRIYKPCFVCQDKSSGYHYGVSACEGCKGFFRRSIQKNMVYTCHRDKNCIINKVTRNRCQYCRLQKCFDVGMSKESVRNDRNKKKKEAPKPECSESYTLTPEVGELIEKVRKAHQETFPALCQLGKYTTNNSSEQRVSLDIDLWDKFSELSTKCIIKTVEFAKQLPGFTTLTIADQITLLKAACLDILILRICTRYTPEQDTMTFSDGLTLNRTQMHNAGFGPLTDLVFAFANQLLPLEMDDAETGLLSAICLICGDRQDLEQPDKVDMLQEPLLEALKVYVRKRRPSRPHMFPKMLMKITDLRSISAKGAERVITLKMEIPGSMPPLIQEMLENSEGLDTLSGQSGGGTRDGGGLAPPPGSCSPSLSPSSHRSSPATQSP
Briefly: RAR-α localization in ESCs by immunocytochemistry. The following applies: ESCs on DE-RA10 without soluble RA; ESC monolayers exposed to soluble RA, FIG. 8A. Here is the method: as §2
as §1, with “For the test of RA signaling, soluble RA (1 μM) or BMS 493 (1 μM, Santa Cruz), a pan-RAR antagonist, was supplemented in the media. To assess the differentiation ability after culturing on the decellularized ECMs, ESCs were replated on 0.1% gelatin-coated 12-well plates and cultured for 7 days in differentiation medium without any inducing growth factors.” left out

[6] abbreviates: BMS 493 (1 μM) added in the DE-RA10 culture, FIG. 8C.
Setting [7] is: BMS 493 treated vs untreated, ESCs on DE-RA10, FIG. 8E.
The mark [8] stands for this setting: FIG. 8E: ESCs on DE-RA10 with or without BMS 493 (1 μM).
Setting [9] is: FIG. 8B: cells in DE-RA10 vs cells in DE-SE10 treated with soluble RA (1 μM).
Setting [10] is: FIG. 8D: ESCs on DE-RA10 vs ESCs treated by soluble RA.

Take `CC1(C)CC=C(C#Cc2ccccc2)c2cc(/C=C/c3ccc(C(=O)O)cc3)ccc21` [BMS 493]: the ESC proliferation result with ESCs [1] (setting [6]) was “reduced ESC proliferation”. For the same molecule, the Oct-4 expression result in the test on ESCs [2] (setting [6]) is recorded as “not Oct-4 expression”. Further, in the test on ESCs [3] (setting [7]), the Nestin expression result was “increased” and the “β-tubulin III expression” value is reported as “similar”. For the same molecule, in the test with ESCs [3] (setting [8]), the “expression of FOXA2” value was found to be 24% and the “expression of α-actinin” value amounted to 3%. The “cell proliferation after BMS 493 treatment” value with ESC-derived NPCs [4] is reported as “reduced the cell proliferation”. The “GFAP expression upon BMS 493 treatment” value in the test on ESC-derived NPCs [5] (DE-EC condition) is “increased GFAP expression”. For the same molecule, the “neural marker expression upon BMS 493” value with ESC-derived NPCs [5] (NPCs, DE-AC group) is “no changes in neural marker expression”. Also, the “Nestin expression upon BMS 493 treatment” value in the test with ESC-derived NPCs [5] (NPCs, DE-EC and DE-NC conditions, FIG. 17B) is listed as “increased”. In the test on ESC-derived NPCs [5] (cells from DE-NC scaffold, FIG. 17C), the “β-Tubulin III expression upon BMS 493 treatment” value is listed as “significant decrease”. Further, the “GFAP expression upon BMS 493 treatment” value with ESC-derived NPCs [5] (cells from DE-NC scaffold) is reported as “significant decrease”.

Turning to `CC1=C(/C=C/C(C)=C/C=C/C(C)=C/C(=O)O)C(C)(C)CCC1` [soluble RA, all-trans retinoic acid], in the test on ESCs [1] (setting [9]), the specific growth rate was -0.013 h⁻¹. This molecule also returned an Oct-4 expression in the test on ESCs [2] (setting [9]) of 10.1%. Also, in the test with ESCs [3] (setting [10]), the Nestin expression came out at 32% and the “β-tubulin III expression” value stood at 25%. Besides, the “localization of RAR-α” value on RAR-α was “translocation of RAR-α from cytoplasm to cell nucleus was confirmed”.

These data come from US10035980B2, “Extracellular matrix derived from stem cells and methods for production” (FLORIDA STATE UNIVERSITY RESEARCH FOUNDATION, INC., priority 2013, dated 2018).
